Results as given in PMC7767178 (International Journal of Molecular Sciences, 2020).
Converted amounts (≈) assume the structure as drawn. “And” between values parts separate entries of the source, which are not always exact repeats. Identical values can stand only once. Like-named read-outs stand apart in the source and are kept apart here.

Columns and labels:
A. veronii ACCC61732 [1] = assay: Post-antibiotic effect (PAE); assay type: cell-based; conditions: for PAE: 2 h exposure, 1000-fold dilution, 37 °C, triplicate
Procedure: The samples were taken from flasks for counting each hour until bacterial cultures became turbid. The untreated bacteria severed as controls. The PAE was calculated using the following equation: PAE = T − C, where T is the time (h) required for the CFU in the test culture to increase by 10-fold from the count immediately after the drug removal and C is the corresponding time (h) for the control. The experiment was performed in triplicate.

[2] = tested on: A. veronii ACCC61732 in biofilm; assay type: cell-based; conditions: 2 h
Procedure: The mid-log phase A. veronii ACCC61732 cells (1 × 10^8 CFU/mL) were inoculated into in the 96-well plates and cultured for 24 h at 37 °C. The plates were washed twice with PBS. […] PBS was used as the negative control. The plates were treated with ultrasound for 5 min and the viable bacteria were counted on the TSA plates.

A. veronii ACCC61732 [3] = assay: Time-killing curves; assay type: cell-based; conditions: 2× MIC; 1 × 10^5 CFU/mL, colony counting, 0–24 h
Procedure: Time-killing curves were performed as previously described. […] The sample of 100 μL was taken from each flask at 0, 0.5, 1, 2, 4, 6, 8, 10, 20, and 24 h, respectively, and serially diluted for colony counting. PBS and CIP were used as the negative and positive control, respectively.

E. coli CVCC1515 = assay: microbe, parasite or virus in culture; assay type: cell-based
Text: (§1) All experiments were repeated three times.

S. pullorum CVCC533 = assay: microbe, parasite or virus in culture; assay type: cell-based
Text: as §1

A. veronii X-1-06909 = assay: microbe, parasite or virus in culture; assay type: cell-based
Text: as §1

S. enteritidis CVCC3377 = assay: microbe, parasite or virus in culture; assay type: cell-based
Text: as §1

[4] = tested on: Staphylococcus aureus ATCC43300; assay: microbe, parasite or virus in culture; assay type: cell-based
Text: as §1

S. pullorum CVCC1809 = assay: microbe, parasite or virus in culture; assay type: cell-based
Text: as §1

Escherichia coli CVCC195 = assay: microbe, parasite or virus in culture; assay type: cell-based
Text: as §1

S. pullorum CVCC1789 = assay: microbe, parasite or virus in culture; assay type: cell-based
Text: as §1

E. coli CVCC25922 = assay: microbe, parasite or virus in culture; assay type: cell-based
Text: as §1

[5] = tested on: Candida albicans CMCC98001; assay: microbe, parasite or virus in culture; assay type: cell-based
Text: as §1

[6] = tested on: A. veronii ACCC61732 biofilms; assay: Mouse model of catheter-associated biofilm infection, bacteria in catheter; assay type: in vivo, ICR mice; conditions: 5 μmol/kg peptide or CIP 24 h after catheter implantation, catheters collected after seven days, six mice per group
Procedure: Briefly, the catheter was cut into 1 cm segments; each piece was sterilized with 70% ethanol and then dried by air. Bacterial biofilms were developed on the catheter by placing individual segments into tubes containing 1.0 mL of a cell suspension (1 × 10^8 CFU/mL) in TSB. After incubation for 24 h at 37 °C, colonized catheters were recovered aseptically and rinsed with PBS to remove unbound bacteria. ICR female mice (20 ± 5 g) were anesthetized with isoflurane; the flanks were shaved and the skin was cleansed with alcohol. […] The incision was then covered with intact skin and closed with surgical suture line and the skin was disinfected. […] The untreated mice were used as the negative control and the mice with sterile catheter were used as the blank control. The mice were anesthetized and sacrificed after seven days. The catheters in the back of the mice were collected and thoroughly shaken in sterile PBS.

A. veronii ACCC61732 [7] = assay: microbe, parasite or virus in culture; assay type: cell-based
Text: The checkerboard microtiter assay was used to determine the combinations of peptides with different antibiotics (including quinolone, rifamycin, peptide antibiotics, aminoglycoside, tetracycline, and chloramphenicol). […] The fractional inhibitory concentration (FIC) was used to calculate the combination effects using the following formula: FIC index (FICI) = MIC(peptide in combination)/MIC(peptide alone) + MIC(antibiotic in combination)/MIC(antibiotic alone). FICI ≤ 0.5 means synergistic, 0.5 < FICI ≤ 1 means additive action, 1 < FICI ≤ 4 means indifference, and FICI > 4 means antagonism.

E. coli CVCCO157 = assay: MIC, microtiter broth dilution; assay type: cell-based; conditions: 37 °C, 16–18 h, three experiments
Text: as §1

A. veronii ACCC61732 [8] = assay: Resistance development, 30 serial passages; assay type: cell-based; conditions: A. veronii ACCC61732, 30 passages (30 days)
Procedure: The development of bacterial resistance of peptides was performed by the MIC assays. […] GEN, CIP, and PMB were used as controls. […] The MIC values were measured as described above. The serial passaging was repeated for 30 days.

A. veronii ACCC61732 [9] = assay: Mouse peritonitis model, bacterial translocation to organs; assay type: in vivo, ICR mice; conditions: 24 h post-treatment, colony counting
Procedure: Sera and organs (livers, kidneys, spleens, and lungs) were collected from the mice at 24 h post-treatment. The organs were homogenized in sterile PBS to evaluate bacterial translocation by colony counting. The levels of cytokines (TNF-α, IL-1β, IL-6, and IL-10) in sera were detected using the ELISA kits.

S. hyicus 437-2 = assay type: cell-based

`O=C(O)c1cn(C2CC2)c2cc(N3CCNCC3)c(F)cc2c1=O` [CIP, ciprofloxacin, reference compound] was tested, and the PAE (A. veronii ACCC61732 [1]; 1× MIC) was 0.6 ± 0.01 h, the PAE (A. veronii ACCC61732 [1]; 2× MIC) was 0.63 ± 0.1 h and the PAE (A. veronii ACCC61732 [1]; 4× MIC) was 0.67 h and 0.67 ± 0.02 h. For the same molecule, the “bacteria in biofilm killed” value ([2]; 8× MIC, 37 °C, colony counting) was 47.46%, the “bacteria in biofilm killed” value ([2]; 16× MIC, 37 °C, colony counting) was 52.32% and the “time to completely kill A. veronii ACCC61732” value (A. veronii ACCC61732 [3]) was “started to regrow after 2 h”. The MIC (E. coli CVCC1515; Escherichia coli, CVCC1515) was under 0.0625 µg/mL, the MIC (E. coli CVCC1515; Escherichia coli, E. coli CVCC1515, broth dilution, 37 °C, 16–18 h, three experiments, read-out: MIC) was under 0.19 µM and the MIC (S. pullorum CVCC533; Salmonella enterica, PULLORUM) was under 0.0625 µg/mL. For the same molecule, the MIC (S. pullorum CVCC533; Salmonella enterica, S. pullorum CVCC533, broth dilution, 37 °C, 16–18 h, three experiments, read-out: MIC) was under 0.19 µM, the MIC (A. veronii X-1-06909; Aeromonas veronii, X106909, A. veronii X-1-06909, broth dilution, 37 °C, 16–18 h, three experiments, read-out: MIC) was 0.25 µg/mL and 0.75 µM and the MIC (S. enteritidis CVCC3377; Salmonella enterica, ENTERITIDIS) was under 0.0625 µg/mL. The MIC (S. enteritidis CVCC3377; Salmonella enterica, S. enteritidis CVCC3377, broth dilution, 37 °C, 16–18 h, three experiments, read-out: MIC) was under 0.19 µM, the MIC ([4]; Staphylococcus aureus ATCC43300, broth dilution, 37 °C, 16–18 h, three experiments, read-out: MIC) was 0.25 µg/mL and 0.75 µM and the MIC (S. pullorum CVCC1809; Salmonella enterica, PULLORUM) was under 0.0625 µg/mL. For the same molecule, the MIC (S. pullorum CVCC1809; Salmonella enterica, S. pullorum CVCC1809, broth dilution, 37 °C, 16–18 h, three experiments, read-out: MIC) was under 0.19 µM, the MIC (Escherichia coli CVCC195; Escherichia coli CVCC195, broth dilution, 37 °C, 16–18 h, three experiments, read-out: MIC) was under 0.19 µM and the MIC (Escherichia coli CVCC195; Escherichia coli, CVCC195) was under 0.0625 µg/mL. The MIC (S. pullorum CVCC1789; Salmonella enterica, PULLORUM) was under 0.0625 µg/mL, the MIC (S. pullorum CVCC1789; Salmonella enterica, S. pullorum CVCC1789, broth dilution, 37 °C, 16–18 h, three experiments, read-out: MIC) was under 0.19 µM and the MIC (E. coli CVCC25922; Escherichia coli, CVCC25922) was under 0.0625 µg/mL. It also gave an MIC (E. coli CVCC25922; Escherichia coli, E. coli CVCC25922, broth dilution, 37 °C, 16–18 h, three experiments, read-out: MIC) of under 0.19 µM, an MIC ([5]; Candida albicans CMCC98001, broth dilution, 37 °C, 16–18 h, three experiments, read-out: MIC) of over 386 µM and an MIC ([5]; Candida albicans, CMCC98001) of over 128 µg/mL. For the same molecule, the “decrease of bacterial cells in the catheter” value [6] was 28.72%, the MIC (A. veronii ACCC61732 [7]; Aeromonas veronii, ACCC61732, read-out: MICa, MIC of the antibiotic used alone) was 0.125 µg/mL and the MIC (E. coli CVCCO157; Escherichia coli, read-out: MIC) was < 0.0625 µg/mL and < 0.19 µM. The “increase of MIC after 30 serial passages” value (A. veronii ACCC61732 [8]) was 15 fold, the “reduction of bacteria in kidneys” value (A. veronii ACCC61732 [9]; 1 μmol/kg) was 60.14% and the “reduction of bacteria in livers” value (A. veronii ACCC61732 [9]; 1 μmol/kg) was 54.55%. For the same molecule, the “reduction of bacteria in lung” value (A. veronii ACCC61732 [9]; 1 μmol/kg) was 62.27% and the “reduction of bacteria in spleens” value (A. veronii ACCC61732 [9]; 1 μmol/kg) was 53.62%.
With `CC(C)[C@@H]1NC(=O)CNC(=O)[C@H](CC(N)=O)NC(=O)[C@H](CCCNC(=N)N)NC(=O)[C@H](Cc2ccc(O)cc2)NC(=O)[C@H](C(C)C)NC(=O)[C@@H](NC(=O)[C@@H](NC(=O)[C@H](CC(N)=O)NC(=O)[C@H](Cc2c[nH]c3ccccc23)NC(=O)[C@H](C)NC(=O)[C@H](Cc2ccccc2)NC(=O)CN)C(C)C)CSSC[C@@H](C(=O)N[C@@H](Cc2cnc[nH]2)C(=O)N[C@@H](CCCNC(=N)N)C(=O)N[C@@H](CCCNC(=N)N)C(=O)N[C@@H](C)C(=O)N[C@@H](CC(N)=O)C(N)=O)NC(=O)[C@H](C(C)C)NC(=O)[C@H](CCCNC(=N)N)NC1=O` [N6NH2] the PAE (A. veronii ACCC61732 [1]; 1× MIC) was 0.69 ± 0.01 h, the “PAEs, range over 1×–4× MIC” value (A. veronii ACCC61732 [1]; 1× to 4× MIC) was 0.69 to 1.17 h and the PAE (A. veronii ACCC61732 [1]; 2× MIC) was 0.7 ± 0.01 h. The PAE (A. veronii ACCC61732 [1]; 4× MIC) was 1.17 ± 0.22 h, the “bacteria in biofilm killed” value [2]; 8 was 65.49% and the “bacteria in biofilm killed” value [2]; 16 was 75.36%. The “time to completely kill A. veronii ACCC61732” value (A. veronii ACCC61732 [3]) was 8 h, the MIC (S. hyicus 437-2) was 12.9 µM and the MIC (S. hyicus 437-2; S. hyicus 437-2 (clinical isolate, pig farm), broth dilution, 37 °C, 16–18 h, three experiments) was 32 µg/mL. It also gave an MIC (E. coli CVCC1515; CVCC1515, read-out: MIC) of 0.81 µM, an MIC (E. coli CVCC1515; E. coli CVCC1515, broth dilution, 37 °C, 16–18 h, three experiments) of 2 µg/mL and an MIC (S. pullorum CVCC533; S. pullorum CVCC533, broth dilution, 37 °C, 16–18 h, three experiments) of 4 µg/mL. The MIC (A. veronii X-1-06909; A. veronii X-1-06909, broth dilution, 37 °C, 16–18 h, three experiments) was 32 µg/mL, the MIC (A. veronii X-1-06909; read-out: MIC) was 12.9 µM and the MIC (S. enteritidis CVCC3377; CVCC3377, read-out: MIC) was 0.81 µM. The MIC (S. enteritidis CVCC3377; S. enteritidis CVCC3377, broth dilution, 37 °C, 16–18 h, three experiments) was 2 µg/mL, the MIC ([4]; ATCC43300, read-out: MIC) was 6.46 µM and the MIC ([4]; Staphylococcus aureus ATCC43300, broth dilution, 37 °C, 16–18 h, three experiments) was 16 µg/mL. It also gave an MIC (S. pullorum CVCC1809; S. pullorum CVCC1809, broth dilution, 37 °C, 16–18 h, three experiments) of 4 µg/mL, an MIC (Escherichia coli CVCC195; Escherichia coli CVCC195, broth dilution, 37 °C, 16–18 h, three experiments) of 4 µg/mL and an MIC (S. pullorum CVCC1789; CVCC1789, read-out: MIC) of 3.23 µM. The MIC (S. pullorum CVCC1789; S. pullorum CVCC1789, broth dilution, 37 °C, 16–18 h, three experiments) was 8 µg/mL, the MIC (E. coli CVCC25922; E. coli CVCC25922, broth dilution, 37 °C, 16–18 h, three experiments) was 4 µg/mL and the MIC ([5]; CMCC98001, read-out: MIC) was over 52 µM. For the same molecule, the “decrease of bacterial cells in the catheter” value [6] was 41.48%, the “interaction with polymyxin B (PMB)” value (A. veronii ACCC61732 [7]; checkerboard, by FICI) was “synergic effect” and the “interaction with rifampicin, streptomycin sulfate, doxycycline hyclate, and kanamycin sulfate” value (A. veronii ACCC61732 [7]; checkerboard, by FICI) was “additive effects”. The MIC (E. coli CVCCO157) was 4 µg/mL (≈ 1.62 µM), the “increase of MIC after 30 serial passages” value (A. veronii ACCC61732 [8]) was “one-fold” and the “reduction of bacteria in kidneys” value (A. veronii ACCC61732 [9]; 5 μmol/kg) was 80.52%. For the same molecule, the “reduction of bacteria in livers” value (A. veronii ACCC61732 [9]; 5 μmol/kg) was 72.94%, the “reduction of bacteria in lungs” value (A. veronii ACCC61732 [9]; 5 μmol/kg) was 71.89% and the “reduction of bacteria in spleens” value (A. veronii ACCC61732 [9]; 5 μmol/kg) was 77.86%.
